Laboratory results: publication PMC10666288, “Unveiling the Catalytic Mechanism of a Processive Metalloaminopeptidase” (Biochemistry, 2023)
Several values for one entry are separate records, joined by “and”; a condition that tells them apart may be missing. Identical values can stand only once. Like-named read-outs stand apart in the source and are kept apart here.

Tests used:
Parameters in all cases: GG stays after cleavage) (N); made in house; host or cells: E. coli BL21(DE3)
PaPepA [1] = target: T1, PaPepA (Pseudomonas aeruginosa, UniProt Q02RY8); assay: Room-temperature EPR spectroscopy Mn2+ titration; conditions: 20 μM PaPepA, 1:0.9 enzyme:Mn^2+ binding model, to be taken as upper limit
T1 sequence (Q02RY8 whole entry): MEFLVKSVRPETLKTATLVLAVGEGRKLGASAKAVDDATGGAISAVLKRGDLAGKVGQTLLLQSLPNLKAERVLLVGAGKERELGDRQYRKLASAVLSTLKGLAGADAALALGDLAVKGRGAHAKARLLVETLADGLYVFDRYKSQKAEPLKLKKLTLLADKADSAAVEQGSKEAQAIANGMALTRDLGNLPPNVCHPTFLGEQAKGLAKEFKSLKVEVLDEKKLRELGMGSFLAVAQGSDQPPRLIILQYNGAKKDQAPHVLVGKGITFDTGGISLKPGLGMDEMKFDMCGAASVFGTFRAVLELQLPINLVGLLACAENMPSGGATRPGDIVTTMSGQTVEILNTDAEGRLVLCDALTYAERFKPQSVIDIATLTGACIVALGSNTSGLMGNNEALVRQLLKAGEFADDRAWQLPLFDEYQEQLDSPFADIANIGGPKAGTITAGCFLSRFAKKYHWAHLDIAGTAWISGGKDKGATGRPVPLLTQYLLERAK
Method: EPR spectra were obtained with a Bruker EMX 10/12 spectrometer running Xenon software and equipped with an ELEXSYS Super Hi-Q resonator at an operating frequency of ∼9.5 GHz with a 100 kHz modulation. EPR spectra for Mn titrations were recorded at room temperature using a 160 mT field sweep centered at 350 mT, a time constant of 40.96 ms, a conversion time of 133.53 ms, and a 480-point resolution. An attenuation of 10 dB (20.7 mW power) and a modulation amplitude of 1 mT were used. Spectra were phase- and background-corrected, and the double integral was obtained using the Xenon software.
For acquiring EPR spectra, 20 μM PaPepA was used in 100 mM HEPES pH 7.5, 50 mM KCl with increasing concentration of MnCl2: 0–30 μM in steps of 2, 35, and 40 μM (18 steps). For the calibration curve, the same buffer and steps were employed in the absence of enzyme.

PaPepA [2] = target: T1, PaPepA; assay: Solvent kinetic isotope effects; assay type: biochemical; conditions: H2O vs 80% D2O, metal varied, Leu-pNA fixed, pH 8.0
Method: SKIEs were determined by plotting saturation curves in H2O or 80% D2O. […] Differences between reaction rates under initial velocity conditions were measured varying the concentration of either Leu-pNA or Mn^2+, while keeping the other component constant and in excess (at least 5× the value of KM or KACT, Scheme 2). Experiments were performed at pH 8.0 (100 mM HEPES, with 50 mM KCl). For proton inventory studies, D2O was varied from 0 to 80% in 10% increments. All proton inventory studies were carried out on the same day by using the same enzyme stock.
When calculating SKIEs, kcat and KM were obtained from the Michaelis–Menten curves in H2O. The 80% D2O Michaelis–Menten curve was fit to the following equation: [drawing 2] 2 where Fi is the fraction D2O, and EV/K and EV are the isotope effects −1 on kcat/KM and kcat, respectively.

PaPepA [3] = target: T1, PaPepA; assay: Metal activation of Leu-pNA cleavage (metal varied, Leu-pNA fixed); assay type: biochemical; conditions: with 2 mM Leu-pNA
Method: A BMG Labtech POLARstar Omega plate reader was used for activity assays and kinetic studies involving amino acids conjugated to para-nitroaniline (pNA) (Sigma) or peptides as substrates. Assays were carried out at 25 °C in clear half-area 96-well plates (Greiner Bio-One). […] For kinetic assays investigating Leu-AMC as a substrate, a SpectraMax M2E was used. Reactions were carried out using black half-area 96-well plates with clear bottoms (Greiner Bio-One). Product formation was assessed by monitoring changes in fluorescence, with the excitation wavelength set at 341 nm and emission at 441 nm. The cutoff was 420 nm. PMT gain was set to medium, with six flashes per read. […] Calibration curves of pNA concentration vs absorbance and AMC vs fluorescence were constructed, and initial rate values were divided by the slope of these calibration curves to reveal the rate of product formation over time (Table S2).
For all assays excluding pH dependence curves, buffer conditions were as follows: 100 mM HEPES, 50 mM KCl, and pH 8.0. For assays carried out under pseudo-first-order conditions, one reaction component was fixed and in excess, while the other was varied. […] For assays involving variation of aa-pNA or aa-AMC, MnCl2 was added to a final concentration of 3 mM.

PaPepA [4] = target: T1, PaPepA; assay: Isothermal titration calorimetry of metal binding
Method: Purified PaPepA (100 μM) was buffer exchanged into ITC buffer (50 mM Tris, 140 mM NaCl, pH 7.4) using a Millipore Amicon Ultra-4 centrifugal unit (10 kDa MWCO). The protein was syringe-filtered through a […] and diluted to 50 μM. 3 mL solutions of filtered metal were also prepared. A 400 μM solution of MnCl2 and a 1 mM solution of MgCl2 were prepared by dilution of 1 M metal chloride stocks (Sigma) into ITC buffer.
Buffer, protein, and metal solutions were degassed. Following extensive washes with ITC buffer, the protein was loaded into the cell (volume 1.43 mL) of a VP-ITC (MicroCal) and MnCl2 or MgCl2 solution was loaded into the syringe (total volume 300 μL). Experiments were carried out using the following settings: temperature = 25 °C, duration = 4 s, spacing = 210 s, filter period = 2 s, for 35 injections (one injection of 2 μL followed by 34 injections of 8 μL). Data were analyzed using Origin(Pro), Version 2021 (OriginLab Corporation, Northampton, Massachusetts, USA), and MicroCal PEAQ-ITC analysis software (Malvern).

PaPepA [5] = target: T1, PaPepA; assay type: biochemical
Description: Viscosity effects were studied by using sucrose as a viscogen. Relative viscosities for different concentrations of sucrose were taken from Bazelyansky et al.[27] Concentrations of viscogen were as follows: 14% sucrose, ηrel = 1.5; 24% sucrose, ηrel = 2.2; and 32% sucrose, ηrel = 2.9.
Viscosity effects were fit to the following equation, where kinetic parameter0 and kinetic parameterη are kcat or kcat/KM in the […] of viscogen, respectively, ηrel is the relative viscosity of the solution, and m is the slope. [drawing 4] 4
All measurements were performed in triplicate.

[6] = H2O (0% PEG-8000), MnCl2 varied

[Mn+2] [Mn^2+]
Kd (PaPepA [1]): 174 nM and ~174 nM
^D2Okcat (PaPepA [2]): 3.9 ± 0.1
^D2Okcat/KACT (PaPepA [2]): 1.9 ± 0.2
KACT (PaPepA [3]; pH 8.0): 0.10 ± 0.01 mM
kcat (PaPepA [3]; pH 8.0): 0.27 s^–1 and 0.274 ± 0.004 s^–1
kcat/KACT (PaPepA [3]; pH 8.0): 2.7 ± 0.2 s^–1mM^–1
KACT (PaPepA [3]; pH 8.0, as given in text): 0.1 mM
greater affinity for Mn^2+ than Mg^2+ (PaPepA [4]; ITC titration curves): approximately 150 times
Kd (PaPepA [4]; ITC, first line per metal: N 1, [PepA] 35.80 ± 1.5 (Mn) or 32.60 (Mg) µM, [Metal] 400.0 or 1000 µM): 0.0122 ± 0.0015 µM
Kd (PaPepA [4]; ITC, one binding site per monomer, 25 °C, pH 7.4): 0.0136 ± 0.0005 µM
Kd (PaPepA [4]; ITC, one binding site per monomer, 25 °C, pH 7.4, listed as Mn2+): 0.012 µM
Kd (PaPepA [4]; ITC, second line per metal: N 1, [PepA] 47.00 or 48.00 µM, [Metal] 526.5 ± 22.5 (Mn) or 1470 (Mg) µM): 0.0163 ± 1e-05 µM
N (PaPepA [4]; ITC, third line per metal: N fitted): 0.76 ± 0.03
Kd (PaPepA [4]; ITC, third line per metal: N fitted, [PepA] 47.00 or 48.00 µM, [Metal] 400.0 or 1000 µM): 0.0122 ± 0.0001 µM
KACT (PaPepA [5]; [6]): 0.19 ± 0.01
kcat/KACT (PaPepA [5]; [6]): 2.2 ± 0.2
kcat (PaPepA [5]; H2O (0% PEG-8000), labelled component varied, other saturating, in 1/s): 0.409 ± 0.009
Slope (sucrose) on kcat/KACT (PaPepA [5]; sucrose as viscogen, Mn2+ variation): -0.10 ± 0.06
Slope (sucrose) on kcat (PaPepA [5]; sucrose as viscogen, labelled component varied): 0.14 ± 0.05
